In US7423153B2, “Crystalline forms of gatifloxacin” (Teva Pharmaceutical Industries Ltd., priority 2002, dated 2008):

Legend:
[1] = Exposure to 80% relative humidity for 1 week (XRD, TGA, KF); assay type: physicochemical; conditions: for crystal structure of resulting sample (XRD): 80% relative humidity for 1 week
Protocol: (§1) X-ray reflections reported herein were determined by the powder diffraction technique (PXRD). X-ray powder diffraction analysis was performed using a Scintag powder diffractometer with variable goniometer, a Cu source, and a solid state detector. A standard round aluminum sample holder with zero background quartz plate was used. Samples were scanned from 2° to 40° 2θ at 3° per minute. Reflections are reported as peak maxima in the Intensity vs. 2θ plots, and are subject to the normal experimental error (uncertainty) of ±0.2°. Wet samples were promptly analyzed “as is,” i.e., without drying or grinding prior to the analysis.
Thermogravimetric analysis (TGA) was performed using a Mettler TG50 thermobalance. Samples of 7 to 15 milligrams were analyzed at a heating rate of 10° C. per minute in the temperature range between about 25° C. and about 200° C.
The water content (wt-% water) of crystalline forms of gatifloxacin reported herein was determined by the Karl-Fisher method. Water content of solutions was likewise determined by the Karl-Fisher method.
200 mg of gatifloxacin form J were put in 80% relative humidity for 1 week. The resulting sample was analyzed by XRD, TGA and KF.
200 mg of gatifloxacin omega form were put in 80% relative humidity for 1 week, and then analyzed by XRD and by TGA.

[2] = Interconversion of crystalline forms by thermal treatment (XRD before and after heating); assay type: physicochemical
Protocol: as §1
Approximately 200 mg of several of the novel crystalline forms of the present invention, prepared as described in the foregoing examples, and several of the prior-art crystalline forms were subjected to various thermal treatments. The treatments and the results are described in Table II below
200 mg of gatifloxacin form E1 were heated to 100° C. for 1 hour. The XRD of the resulting sample was that of the omega form.

[3] = as reported in U.S. Pat. No. 5,880,283; cited from earlier work
[4] = among forms of U.S. Pat. No. 6,413,969, cited from earlier work
[5] = Stability of E1 dihydrate against transformation to sesquihydrate on storage (PXRD); assay type: physicochemical
Protocol: A suitable method to determine the presence of gatifloxacin sesquihydrate in gatifloxacin form E1 is x-ray powder diffraction. Determination of presence of sesquihydrate in form E1 is feasible in the region 7° to 9° 2θ, where a peak of sesquihydrate appears at about 7.8° 2θ.
Moreover, the dihydrate of the present invention is stable against transformation to the sesquihydrate when exposed at ambient temperature to 60% relative humidity for one week.
The E1 dihydrate of the present invention is stable against transformation to sesquihydrate when stored at 30° C. and 60% relative humidity for 3 months.

[6] = Stability of E1 in formulations; assay type: physicochemical; conditions: in formulations at 30° C.
Source text: The pharmaceutical composition can be in the form of a solid oral dosage form (e.g., compressed tablets or capsules), or it can be in the form of a liquid oral dosage form (e.g., a solution or oral suspension).

[7] = after 80% relative humidity for 1 week

Structure (SMILES): COc1c(N2CCNC(C)C2)c(F)cc2c(=O)c(C(=O)O)cn(C3CC3)c12 (stereo not shown) [omega form, gatifloxacin]
- crystal structure of resulting sample (XRD) [1]: sesquihydrate
- LOD of resulting sample (TGA) [1, 7]: 7.7%

Structure (SMILES): COc1c(N2CCNC(C)C2)c(F)cc2c(=O)c(C(=O)O)cn(C3CC3)c12 (stereo not shown) [T1RP, gatifloxacin]
- form Obtained after heating (XRD) ([2]; 120° C., 1 h): Hemihydrate

Structure (SMILES): COc1c(N2CCNC(C)C2)c(F)cc2c(=O)c(C(=O)O)cn(C3CC3)c12 (stereo not shown) [sesquihydrate, gatifloxacin]
- form Obtained after heating (XRD) ([2]; 120° C., 1 h): T2RP + omega
- hygroscopicity [3]: less hygroscopic
- stability in manufacturing [3]: more stable in manufacturing

Structure (SMILES): COc1c(N2CCNC(C)C2)c(F)cc2c(=O)c(C(=O)O)cn(C3CC3)c12 (stereo not shown) [pentahydrate, gatifloxacin]
- thermodynamic stability [4]: most thermodynamically stable form
- aqueous solubility ([4]; room temperature): lowest aqueous solubility

Structure (SMILES): COc1c(N2CCNC(C)C2)c(F)cc2c(=O)c(C(=O)O)cn(C3CC3)c12 (stereo not shown) [form G, gatifloxacin]
- form Obtained after heating (XRD) ([2]; 120° C., 1 h): Omega^1.

Structure (SMILES): COc1c(N2CCNC(C)C2)c(F)cc2c(=O)c(C(=O)O)cn(C3CC3)c12 (stereo not shown) [hemihydrate, gatifloxacin]
- form Obtained after heating (XRD) ([2]; 120° C., 1 h): T2RP
- hygroscopicity [3]: hygroscopic

Structure (SMILES): COc1c(N2CCNC(C)C2)c(F)cc2c(=O)c(C(=O)O)cn(C3CC3)c12 (stereo not shown) [E1 dihydrate, gatifloxacin]
- stability against transformation to the sesquihydrate ([5]; ambient temperature, 60% relative humidity, one week, PXRD): stable
- stability against transformation to sesquihydrate ([5]; stored at 30° C. and 60% relative humidity for 3 months): stable

Structure (SMILES): COc1c(N2CCNC(C)C2)c(F)cc2c(=O)c(C(=O)O)cn(C3CC3)c12 (stereo not shown) [form J, gatifloxacin]
- form Obtained after heating (XRD) ([2]; 120° C., 1 h): omega
- crystal structure of resulting sample (XRD) [1]: sesquihydrate
- KF water content of resulting sample [1, 7]: 6.6%
- LOD of resulting sample (TGA) [1, 7]: 7.8%

Structure (SMILES): COc1c(N2CCNC(C)C2)c(F)cc2c(=O)c(C(=O)O)cn(C3CC3)c12 (stereo not shown) [form E1, gatifloxacin]
- form Obtained after heating (XRD) ([2]; 100° C. for 1 hour): omega form
- time stable in formulations [6]: at least 3 months
